Results taken from ChEMBL document CHEMBL1157539, “Thousands of chemical starting points for antimalarial lead identification” (Nature, 2010).

System: Plasmodium falciparum
Test: GSK_TCMDC: Inhibition of Plasmodium falciparum 3D7 in whole erythrocytes, using parasite LDH activity as an index of growth.
Format: functional, organism-based
Settings: Plasmodium falciparum, 3D7

COc1ccc2nc(-c3ccccc3)cc(N/N=C/c3ccc([N+](=O)[O-])o3)c2c1
XC50: 0.202 µM

Oc1cc(NC[C@H]2CCC[C@@H]2NCc2cc(Br)cc(Br)c2)nc2ccccc12
XC50: 0.678 µM

CCC(C)(C)n1c(C)cc2c3c(N)nc(N)nc3ccc21
XC50: 0.0032 µM

c1cc(-c2nc3ccccc3[nH]2)nc(-c2nc3ccccc3[nH]2)c1
XC50: 1.12 µM

N=c1n(CCN2CCCCC2)c2ccccc2n1CC(O)c1cccc(Br)c1 (configuration not stated)
XC50: 1.14 µM

O=C(NCCN1CCCC1)c1cc(-c2ccc(Cl)c(O)c2)c(-c2ccncc2)o1
XC50: 1.63 µM

COc1ccc(CCN(C)CCc2ccc(NC(=O)c3cccc4c(=O)c5ccccc5sc34)cc2)cc1
XC50: 0.859 µM

CCOC(=O)C1=C(C)N=c2sc(=Cc3ccccc3O)c(=O)n2C1c1ccc(OC)c2ccccc12 (configuration not stated)
XC50: 1.26 µM

C[C@H](Cc1ccc(C[C@@H](C)NCC(O)c2cc(Cl)c(N)c(Cl)c2)cc1)NCC(O)c1cc(Cl)c(N)c(Cl)c1 (some centres not stated)
XC50: 0.893 µM

COc1ccc(N(c2nc(-c3cc(Cl)ccc3Cl)cs2)C2CCNC2)cc1 (configuration not stated)
XC50: 0.873 µM

CS(=O)(=O)NCCCNCc1ccc(-c2cccc(-c3nc4cc(C(F)(F)F)ccc4[nH]3)c2)cc1
XC50: 0.854 µM

Cc1cc(C)c(CC(C)NCC(O)c2cccc(C(F)(F)F)c2)c(C)c1 (configuration not stated)
XC50: 0.568 µM

COc1ccc2nccc([C@@H](O)CN3CCC(NC(=O)/C=C/c4ccc5cc(C)[nH]c5c4)CC3)c2c1
XC50: 0.728 µM

CC1CN(c2nc(NCCc3ccc(O)cc3)nc(NCc3ccccc3-c3ccc(C(F)(F)F)cc3)n2)CC(C)N1 (configuration not stated)
XC50: 0.529 µM

CCCCCCCN1CC[C@@H](CCCc2ccnc3ccc(OC)cc23)[C@@H](CNC)C1
XC50: 0.211 µM

c1ccc2c(C3CCN(CCCCOc4ccc5c(c4)CCN(C4CCC4)CC5)CC3)c[nH]c2c1
XC50: 0.705 µM

O=C(Nc1cccc(-c2cccc(-c3nc4ccccc4[nH]3)c2)c1)Nc1ccc(F)c(F)c1F
XC50: 0.0551 µM

O=[N+]([O-])c1cc2c(cc1C=NNc1nc(=Nc3ccccc3)[nH]c(=Nc3ccccc3)[nH]1)OCO2
XC50: 0.866 µM

N=C(N)Nc1ccc(OCCCCCOc2ccc(NC(=N)N)cc2Br)c(Br)c1
XC50: 0.262 µM

COc1cc(NC(=O)/C=C/c2cc(F)cc(F)c2F)cc(OCCN2CCCCC2)c1
XC50: 0.153 µM

Cc1cccc2nc(-c3cccc(-c4cccc(CN5CCN(c6ccc(C#N)cn6)CC5)c4)c3)[nH]c12
XC50: 1.16 µM

O=C(NC1CCC(CN2CCC(c3c[nH]c4ccccc34)CC2)CC1)c1cc2ccccc2o1 (configuration not stated)
XC50: 0.971 µM

CN(C)CCOc1ccc(-c2cc(-c3ccc(Cl)c(O)c3)c(-c3ccncc3)[nH]2)cc1
XC50: 0.58 µM

CCOc1ccc2[nH]c(C)cc(=NN=Cc3ccc(Cl)cc3)c2c1
XC50: 0.763 µM

CCOc1ccc(C(C)NC(=O)c2ccc(OC)c(Br)c2)cc1OCC (configuration not stated)
XC50: 0.706 µM

CN(C)CCC1CCCc2ccc(NC(=O)Nc3cccc(Cl)c3Cl)cc21 (configuration not stated)
XC50: 0.958 µM

Cc1ccc(NC(=S)NC2CCN(CCCCCNC(=O)/C=C/c3ccc(Cl)c(Cl)c3)CC2)cc1Cl
XC50: 0.992 µM

CCCCOC(=O)c1ccc(NC(=O)Nc2ccc(Cn3ncc(N4CCCNCC4)c(Cl)c3=O)cc2)cc1
XC50: 0.739 µM

Cc1ccccc1OCCCN1CCN(CC(c2ccc(F)cc2)N2CCN(C(C)C)CC2)CC1 (configuration not stated)
XC50: 1.41 µM

O=C(NCCCN1CCC(NC(=O)c2ccc(-c3cccnc3)cc2)CC1)c1ccc(Cl)c(Cl)c1
XC50: 0.854 µM

COc1ccc(S(=O)(=O)N2CCOCC2)cc1NC(=O)c1cc2ccccc2o1
XC50: 0.795 µM

CS(=O)(=O)CCCNCc1ccc(-c2cc3c(Nc4ccc(OCc5ccccc5)cc4)ncnc3cn2)o1
XC50: 0.65 µM

Nc1nccc(-c2ccc3c(-c4cccc(F)c4)cnc(N)c3c2)n1
XC50: 1.02 µM

CN(CCO)Cc1ccc(-c2ccc(NS(=O)(=O)c3cccc4cccnc34)cc2)cc1
XC50: 0.795 µM

COc1ccc(CN2CCC(N3CC(c4ccccc4)(c4ccccc4)OCC3=O)C2)c(O)c1 (configuration not stated)
XC50: 0.931 µM

COc1cc(OC)c(NC(=O)C2c3ccccc3C(=O)N(C)C2c2cccs2)cc1Cl (configuration not stated)
XC50: 0.764 µM

CC(C)CNCc1ccc(-c2ccc(CN(C(=O)NC3CCCCC3)C3CCN(Cc4ccccc4)CC3)cc2)cc1
XC50: 0.785 µM

O=C(C=Cc1ccc(Cl)c(Cl)c1)NCCCCCN1CCC(CCNC(=O)c2sc3ccccc3c2Cl)CC1
XC50: 1.01 µM

COc1ccc(CC(=O)Nc2ccc(Nc3nc(C)cc(N(C)C)n3)cc2)cc1
XC50: 0.79 µM

CC(=O)N1CCN(c2ccc(NC(=O)c3oc(-c4ccccc4)nc3C(F)(F)F)cn2)CC1
XC50: 0.84 µM

Cc1cc(C(=O)OCC(=O)Nc2c(C)n(C)n(-c3ccccc3)c2=O)c(C)n1-c1ccc(F)cc1
XC50: 0.0539 µM

CCCCNc1nccc2ccc(-c3ccncc3)cc12
XC50: 0.775 µM

COc1ccc2ccccc2c1CNCC1CCN(CC2CCCCC2)CC1
XC50: 0.761 µM

CC[C@H](C)CNCc1ccc(OCc2cccc(COc3ccc(CNC[C@@H](C)CC)cc3I)c2)c(I)c1
XC50: 0.396 µM

CCc1ccc(C2CCN(CCCCNC(=O)c3ccc(-c4ccc(C(F)(F)F)cc4)cc3)CC2)c(OCCO)c1
XC50: 0.41 µM

Cc1c(-c2cccc(NC(=O)C(C)(C)Oc3ccc(Cl)cc3)c2)nc2ncccn12
XC50: 0.17 µM

CCNc1cc(C)nc(Nc2ccc(NC(=O)C3CCCC3)cc2)n1
XC50: 1.12 µM

Cn1nccc1C(=O)NCCNCc1ccc(-c2ccc(-c3nc4ccccc4[nH]3)s2)cc1
XC50: 0.559 µM

COc1ccc(-c2ccc(NC(=O)c3ccc(Cl)cc3)cc2)cc1CN1CCC(O)CC1
XC50: 1.09 µM

O=C(NCc1cccs1)[C@H](Cc1ccccc1)Nc1ccnc(NCCc2ccccc2)n1
XC50: 1.05 µM

N[C@@H](COc1cccc2c(-c3ccncc3)c(-c3cccc(NC(=O)Nc4ccccc4)c3)nn12)c1ccccc1
XC50: 0.408 µM

CCCCN1Cc2c(n(CC(=O)Nc3ccccc3)c3cc(-c4ccccc4)nn3c2=O)C1=O
XC50: 0.811 µM

COc1ccccc1CCC(C)(C)NC(=O)CC(CCc1ccccc1)Nc1ccc(C#N)c2ccccc12 (configuration not stated)
XC50: 0.919 µM

Cc1cc(NC2CCCC2)nc(Nc2ccc(F)cc2)n1
XC50: 0.471 µM

Nc1ncc(-c2ccc3nccc(-c4ccncc4)c3c2)cc1S(=O)(=O)N1CCCCC1
XC50: 0.581 µM

Cc1c(C(=O)Nc2cc(Sc3ccc(F)cc3)cc([N+](=O)[O-])c2)sc2ncn(Cc3cccc(F)c3)c(=O)c12
XC50: 0.72 µM

NC(Cc1cccc(I)c1)C(=O)NCC1CCCO1 (configuration not stated)
XC50: 0.895 µM

O=C(NCc1ccc(F)cc1)c1ccc(N2CCN(c3ccncc3)CC2)cn1
XC50: 0.886 µM

O=C(NCc1ccccc1)c1nn(CCCN2CCC3(CC2)C(=O)NCN3c2ccccc2)cc1-c1ccc(Cl)c(Cl)c1
XC50: 1.05 µM

Cc1ccc(NC(=O)NC2CCN(c3ccnc4ccccc34)CC2)cc1
XC50: 0.79 µM

Cc1cccc2nc(-c3cccc(-c4cccc(NC(=O)c5ccc(=O)[nH]n5)c4)c3)[nH]c12
XC50: 0.789 µM

CN1CCCN(Cc2ccc(-c3ccc(NC(=O)c4cccc(C#N)c4)cc3)cc2)CC1
XC50: 0.875 µM

C=C(C)C1CC=C(CN2CCC(N3CCc4cc(NC(=O)c5cc(C)on5)ccc43)C2)CC1 (configuration not stated)
XC50: 0.707 µM

COC(=O)c1cccc(CNCc2ccc(-c3ccc(-c4nc5cccc(C)c5[nH]4)s3)cc2)c1
XC50: 0.402 µM

CN1CCN(c2ccnc3ccc(NC(=O)Nc4cccc5c(Br)cccc45)cc23)CC1
XC50: 0.153 µM

CCc1ccc(NC(=O)C=NNC(=N)N)cc1
XC50: 0.902 µM

CN(C)CCNCc1ccc(-c2ccc3c(Nc4ccc(Oc5ccccc5)cc4)ccnc3c2)o1
XC50: 0.28 µM

Cc1cnc(Nc2cccnc2)nc1Nc1ccccc1C(=O)NC(C)C
XC50: 1.2 µM

Cc1noc(-c2cccs2)c1C(=O)NC(C)c1cccc2ccccc12 (configuration not stated)
XC50: 0.129 µM

O=C(CCNc1ccnc(NCCc2ccccc2)n1)Nc1ccccc1
XC50: 0.836 µM

COc1ccc(C(=O)N2CCC3(CC2)C(=O)N(CC(=O)NC2CCCCC2)CN3c2ccccc2)c(OC)c1
XC50: 0.224 µM

C=CCOC1OC(COC(c2ccccc2)(c2ccccc2)c2ccccc2)C(OC(C)=O)C(OC(C)=O)C1NC(C)=O (configuration not stated)
XC50: 0.657 µM

CCOC(=O)c1cccc(NC(=O)Nc2cccc(-c3ncc(OCCCN)c4c3nc(-c3nonc3N)n4CC)c2)c1
XC50: 0.894 µM

Cc1cc2nc(-c3ccc(/C=C/C(=O)NCCCc4ccccc4)cc3)[nH]c2cc1C
XC50: 0.955 µM

COc1ccc(NC(=O)c2ccc(Br)c(C)c2)cc1N1CCN(CCCCc2ccccc2)CC1
XC50: 0.817 µM

COc1ccc(CNC2Cc3ccccc3C2)cc1-c1ccc(S(=O)(=O)NCc2cccnc2)s1
XC50: 1.11 µM

Cc1nc2ccccc2c(=O)n1NCc1ccc(Cl)c(Cl)c1
XC50: 0.146 µM

O=S(=O)(c1ccc(OCc2ccc(Cl)cc2)cc1)c1cc2c(cc1OCc1ccccc1)CCN(CC1CC1)CC2
XC50: 1.11 µM

COc1cc(Cc2cnc(N)nc2N)cc(OCCCCC2SC(=O)NC2=O)c1Br (configuration not stated)
XC50: 0.123 µM

Cc1ccc(C)c(C2CCN(CCCCNC(=O)c3ccc(NC(=O)c4ccc(Cl)cc4)cc3)CC2)c1
XC50: 0.847 µM

Cc1cccc(C(=O)N2CCN(Cc3cccc(NC(=O)c4cccs4)c3)CC2)c1
XC50: 0.221 µM

CCCC(=O)NC(c1ccc(C(C)C)cc1)c1ccc2cccnc2c1O (configuration not stated)
XC50: 0.934 µM

COc1cccc(C2(NC[C@@H](O)[C@H](Cc3ccccc3)NC(=O)c3ccccc3)CCCCC2)c1
XC50: 0.729 µM

Cc1cc(-c2ccc(NC(=O)N3CCc4cc(Br)c(N5CCN(C)CC5)cc43)cc2)cc(C)n1
XC50: 1.01 µM

Cc1nc2sccn2c1C(=O)NCCc1ccccc1Cl
XC50: 0.8 µM

O=C(Nc1cccc(C(F)(F)F)c1)c1ccc(S(=O)(=O)NCC2CCCN2CC2CCCCC2)cc1 (configuration not stated)
XC50: 0.751 µM

CCOC(=O)c1cn(CC)c2cc(N3CCCCC3)c(F)cc2c1=O
XC50: 0.125 µM

CC(C)CNCc1ccc(-c2cccc(CN(CCN(C)C)C(=O)CCC3CCCC3)c2)cc1
XC50: 0.809 µM

O=C(Nc1ccc(-c2nc3ccccc3[nH]2)cc1)c1cccc(S(=O)(=O)N2CCCC2)c1
XC50: 0.743 µM

CN(C)CCNCc1cccc(-c2cccc(-c3nc4ccccc4[nH]3)c2)c1
XC50: 0.766 µM

Oc1ccc(Cl)cc1CN1CCCC(COC(c2ccc(F)cc2)c2ccc(F)cc2)C1 (configuration not stated)
XC50: 0.677 µM

Clc1ccc(/N=C(/NCCCCCCCN/C(=N\c2ccc(Cl)cc2)Nc2ccc(Cl)cc2)Nc2ccc(Cl)cc2)cc1
XC50: 0.321 µM

Cc1cc(CNC(=O)c2ccc(-c3ccc(-c4nc5cc(C(F)(F)F)ccc5[nH]4)s3)cc2)on1
XC50: 0.732 µM

Cc1ccc(C)c(NC(=O)CC2C(=O)N(c3ccccc3)C(=S)N2Cc2ccco2)c1 (configuration not stated)
XC50: 0.57 µM

COc1ccc(-c2cccc(NC(=O)c3ccc(F)cc3)c2)cc1CN1CCCN(C)CC1
XC50: 0.833 µM

COc1ccc(-c2cnc(N)c(-c3ccc(C(N)=O)cc3)c2)cc1OC
XC50: 0.897 µM

CC1CCCCN1S(=O)(=O)c1ccc(NC(=O)c2cc(-c3ccccc3O)n[nH]2)cc1 (configuration not stated)
XC50: 0.756 µM
